Molecular target: T1, hematopoietic prostaglandin D synthase (H-PGDS) (Homo sapiens, UniProt O60760)
T1 construct: Full length human H-PGDS cDNA (Invitrogen Ultimate ORF IOH13026) was amplified by PCR; 6-His (N); TEV protease cleavage site (N); made in house; host or cells: E. coli BL21 (DE3*), vector pET22b+
Assay: H-PGDS RapidFire High Throughput Mass Spectrometry Assay
Format: biochemical
Details: conversion of PGH2 to PGD2 by human H-PGDS, 10 nM enzyme; for IC50: mean pIC50, read-out: Potency Range (mean pIC50) (converted)
Protocol: The H-PGDS RapidFire™ mass spectrometric assay monitors conversion of prostaglandin H2 (PGH2) to prostaglandin D2 (PGD2) by hematopoietic prostaglandin D synthase (H-PGDS). In the assay format described here, the substrate (PGH2) is formed in situ by the action of cyclooxygenase-2 on arachidonic acid. This first step is set up to be fast, and generates a burst of PGH2 at ˜10 μM. The PGH2 is then further converted to PGD2 by the H-PGDS enzyme. […] Plates are then read on the RapidFire™ high throughput solid phase extraction system (Agilent) which incorporates a solid phase extraction step coupled to a triple quadrupole mass spectrometer (AB SCIEX). Relative levels of PGD2 and PGF2α, which acts as a surrogate for substrate, are measured and a percent conversion calculated. Inhibitors are characterized as compounds which lower the conversion of PGH2 to PGD2.
Full length human H-PGDS cDNA (Invitrogen Ultimate ORF IOH13026) was amplified by PCR with the addition of a 5′ 6-His tag and TEV protease cleavage site. The PCR product was digested with NdeI and XhoI and ligated into pET22b+ (Merck Novagen®). Expression was carried out in E. coli strain BL21 (DE3*) using auto-induction Overnight Express™ Instant TB medium (Merck Novagen®) supplemented with 1% glycerol. The culture was first grown at 37° C. and the temperature was reduced to 25° C. when OD600 reached 2.0. Cells were harvested by centrifugation after a further 18 hours. 10 g of E. coli cell pellet was suspended to a total volume of 80 mL in lysis buffer (20 mM Tris-Cl pH 7.5, 300 mM NaCl, 20 mM imidazole, 5 mM β-mercaptoethanol, 10% glycerol). 1 mg/mL protease inhibitors (Protease Inhibitor Cocktail Set III, Merck Calbiochem®) and 1 mg/mL lysozyme were added to the cell suspension. The suspension was then sonicated for 5 min (Ultrasonic Processor VCX 750, Cole-Parmer Instrument Co.) with a micro probe (50% amplitude, 10 sec on/off) and then centrifuged at 100,000 g for 90 minutes (at 4° C.). The supernatant was loaded onto a Ni-NTA HiTrap column (5 mL, GE Healthcare, pre-equilibrated in lysis buffer). The column was washed with 10 column volumes of lysis buffer and eluted with lysis buffer containing 500 mM imidazole. The pooled protein peak fractions were concentrated using a 10 kDa centrifugal filter at 3500 g and 4° C. (Amicon Ultra-15 centrifugal filter unit with Ultracel-10 membrane from Millipore). Further purification of the concentrated protein was carried out using gel filtration chromatography on a HiLoad 26/600 Superdex75 preparative grade column (GE Healthcare Life Sciences) using 50 mM Tris pH 7.5, 50 mM NaCl, 1 mM dithiothreitol, 1 mM MgCl2. Fractions containing the protein were pooled, concentrated as described above, and stored at −80° C.
The full length human COX-2 gene (accession number L15326) was amplified by PCR to generate an EcoRI-Hindi 11 fragment containing an in-frame FLAG tag. This was subcloned into pFastBac 1 (Invitrogen). The COX-2 FLAG plasmid was recombined into the baculovirus genome according to the BAC-to-BAC protocol described by Invitrogen. Transfection into Spodoptera frugiperda (Sf9) insect cells was performed using Cellfectin (Invitrogen), according to the manufacturer's protocol. Super Sf9 cells were cultured in EX420 media (SAFC Biosciences) to a density of approximately 1.5×10^6 cells/mL within a wave bioreactor. Recombinant virus was added at a Multiplicity of Infection (MOI) of 5 and the culture was allowed to continue for 3 days. Cells were harvested using a continuous feed centrifuge run at 2500 g at a rate of approximately 2 L/min with cooling. The resultant cell slurry was re-centrifuged in pots (2500 g, 20 min, 4° C.) and the cell paste was stored at −80° C. 342 g of cell paste was re-suspended to a final volume of 1600 mL in a buffer of 20 mM Tris-Cl pH 7.4, 150 mM NaCl, 0.1 mM EDTA, 1.3% w/v n-octyl-β-D-glucopyranoside containing 20 Complete EDTA-free Protease Inhibitor Cocktail tablets (Roche Applied Science). […]

T1 sequence (O60760 whole entry): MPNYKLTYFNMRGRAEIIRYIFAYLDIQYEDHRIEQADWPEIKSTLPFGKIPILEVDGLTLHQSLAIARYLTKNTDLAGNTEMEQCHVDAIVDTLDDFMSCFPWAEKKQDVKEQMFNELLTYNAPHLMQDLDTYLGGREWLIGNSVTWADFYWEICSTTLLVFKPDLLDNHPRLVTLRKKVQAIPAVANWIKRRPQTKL

| Molecule | IC50 | Potency Range (mean pIC50) |
| --- | --- | --- |
| CC(N[C@H]1CC[C@H](NC(=O)c2cnc3nc(C4CC4)sc3c2)CC1)C(F)F (relative stereo) [Example 23, 2-Cyclopropyl-N-(trans-4-((1,1-difluoropropan-2-yl)amino)cyclohexyl)thiazolo[4,5-b]pyridine-6-carboxamide] | 100 to 1000 nM | – |
| C[C@H]1CCN1c1nc2ncc(C(=O)N[C@H]3CC[C@H](C(C)(C)O)CC3)cc2s1 [Example 34, N-(trans-4-(2-Hydroxypropan-2-yl)cyclohexyl)-2-((S)-2-methylazetidin-1-yl)thiazolo[4,5-b]pyridine-6-carboxamide] | 10 to 79.4 nM | – |
| 2-Cyclopropyl-N-((3R,6S)-6-(2-hydroxypropan-2-yl)tetrahydro-2H-pyran-3-yl)thiazolo[4,5-b]pyridine-6-carboxamide and 2-Cyclopropyl-N-((3S,6R)-6-(2-hydroxypropan-2-yl)tetrahydro-2H-pyran-3-yl)thiazolo[4,5-b]pyridine-6-carboxamide [Example 24] | – | ** (** = pIC50 6.0-7.0) |
| C[C@]1(O)C[C@@H](NC(=O)c2cnc3cc(Br)sc3c2)C1 [Example 3] | 1260 to 10000 nM | – |
| COc1nc2ncc(C(=O)N[C@H]3CC[C@H](C(C)(C)O)CC3)cc2s1 [Example 40, N-((trans)-4-(2-Hydroxypropan-2-yl)cyclohexyl)-2-methoxythiazolo[4,5-b]pyridine-6-carboxamide] | 100 to 1000 nM | – |
| CC(C)Nc1nc2ncc(C(=O)N[C@H]3CC[C@H](C(C)(C)O)CC3)cc2s1 [Example 5] | 100 to 1000 nM | – |
| O=C(N[C@H]1CC[C@H](N2CC(F)(F)C2)CC1)c1cnc2nc(C3CC3)sc2c1 [Example 21, 2-Cyclopropyl-N-((trans)-4-(3,3-difluoroazetidin-1-yl)cyclohexyl)thiazolo[4,5-b]pyridine-6-carboxamide] | 100 to 1000 nM | – |
| CC(C)(C)c1nc2ncc(C(=O)N[C@H]3CC[C@H](C(C)(C)O)CC3)cc2s1 [Example 27, 2-(tert-Butyl)-N-(trans-4-(2-hydroxypropan-2-yl)cyclohexyl)thiazolo[4,5-b]pyridine-6-carboxamide] | 100 to 1000 nM | – |
| O=C(NC1C[C@H](O)C[C@@H](O)C1)c1cnc2nc(C3CC3)sc2c1 (mixture of isomers) [Example 41, Racemic 2-cyclopropyl-N-((3S,5S)-3,5-dihydroxycyclohexyl)thiazolo[4,5-b]pyridine-6-carboxamide] | 100 to 1000 nM | – |
| CN(c1nc2ncc(C(=O)N[C@H]3CC[C@H](C(C)(C)O)CC3)cc2s1)C1CC1 [Example 35, 2-(Cyclopropyl(methyl)amino)-N-(trans-4-(2-hydroxypropan-2-yl)cyclohexyl)thiazolo[4,5-b]pyridine-6-carboxamide] | 100 to 1000 nM | – |
| CC(C)(O)[C@H]1CC[C@H](NC(=O)c2cnc3cc(C4CC4)sc3c2)CC1 [Example 2] | 10 to 79.4 nM | – |
| CC(C)(O)[C@H]1C[C@H](NC(=O)c2cnc3nc(C4CC4)sc3c2)C1 [Example 22, 2-Cyclopropyl-N-((trans)-3-(2-hydroxypropan-2-yl)cyclobutyl)thiazolo[4,5-b]pyridine-6-carboxamide] | 100 to 1000 nM | – |
| CC(C)c1nc2ncc(C(=O)N[C@H]3CC[C@H](C(C)(C)O)CC3)cc2s1 [Example 30, N-(trans-4-(2-Hydroxypropan-2-yl)cyclohexyl)-2-isopropylthiazolo[4,5-b]pyridine-6-carboxamide] | 100 to 1000 nM | – |
| CC(C)(O)[C@H]1CC[C@H](NC(=O)c2cnc3nc(N4CCC4)sc3c2)CC1 [Example 29, 2-(Azetidin-1-yl)-N-(trans-4-(2-hydroxypropan-2-yl)cyclohexyl)thiazolo[4,5-b]pyridine-6-carboxamide] | 100 to 1000 nM | – |
| O=C(N[C@H]1CC[C@H](C(O)C(F)(F)F)CC1)c1cnc2nc(C3CC3)sc2c1 (mixture of isomers) [Example 32, Racemic 2-Cyclopropyl-N-(trans-4-(2,2,2-trifluoro-1-hydroxyethyl)cyclohexyl)thiazolo[4,5-b]pyridine-6-carboxamide] | 10 to 79.4 nM | – |
| C[C@]1(O)CC[C@H](NC(=O)c2cnc3nc(C4CC4)sc3c2)CC1 [Example 17, 2-Cyclopropyl-N-((trans)-4-hydroxy-4-methylcyclohexyl)thiazolo[4,5-b]pyridine-6-carboxamide] | 1260 to 10000 nM | – |
| O=C(N[C@H]1CC[C@H](C(O)C2CC2)CC1)c1cnc2nc(C3CC3)sc2c1 (relative stereo) [Example 26, 2-Cyclopropyl-N-(trans-4-(cyclopropyl(hydroxy)methyl)cyclohexyl)thiazolo[4,5-b]pyridine-6-carboxamide] | 10 to 79.4 nM | – |
| O=C(N[C@H]1CC[C@H](CO)CC1)c1cnc2nc(C3CC3)sc2c1 [Example 20, 2-Cyclopropyl-N-((trans)-4-(hydroxymethyl)cyclohexyl)thiazolo[4,5-b]pyridine-6-carboxamide] | 100 to 1000 nM | – |
| CC(C)(F)c1nc2ncc(C(=O)N[C@H]3CC[C@H](C(C)(C)O)CC3)cc2s1 [Example 25, 2-(2-Fluoropropan-2-yl)-N-(trans-4-(2-hydroxypropan-2-yl)cyclohexyl)thiazolo[4,5-b]pyridine-6-carboxamide] | 100 to 1000 nM | – |
| CC(C)(O)C1CC2(CC(NC(=O)c3cnc4nc(C5CC5)sc4c3)C2)C1 (racemic) [Example 15, (Racemic)-2-cyclopropyl-N-(6-(2-hydroxypropan-2-yl)spiro[3.3]heptan-2-yl)thiazolo[4,5-b]pyridine-6-carboxamide] | 10 to 79.4 nM | – |
| CC(C)(O)[C@H]1CC[C@H](NC(=O)c2cnc3nc(N(C4CC4)C4CC4)sc3c2)CC1 [Example 36, 2-(Dicyclopropylamino)-N-(trans-4-(2-hydroxypropan-2-yl)cyclohexyl)thiazolo[4,5-b]pyridine-6-carboxamide] | 1260 to 10000 nM | – |
| CC(C)(O)[C@H]1CC[C@H](NC(=O)c2cnc3nc(N4CCCC4)sc3c2)CC1 [Example 33, N-(trans-4-(2-Hydroxypropan-2-yl)cyclohexyl)-2-(pyrrolidin-1-yl)thiazolo[4,5-b]pyridine-6-carboxamide] | 100 to 1000 nM | – |
| CC(C)(O)C12CC(NC(=O)c3cnc4cc(C5CC5)sc4c3)(C1)C2 [Example 12, 2-Cyclopropyl-N-(3-(2-hydroxypropan-2-yl)bicyclo[1.1.1]pentan-1-yl)thieno[3,2-b]pyridine-6-carboxamide] | 10 to 79.4 nM | – |
| CC(C)N(C)c1nc2ncc(C(=O)N[C@H]3CC[C@H](C(C)(C)O)CC3)cc2s1 [Example 6] | 10 to 79.4 nM | – |
| CN(c1nc2ncc(C(=O)N[C@H]3CC[C@H](C(C)(C)O)CC3)cc2s1)C(C)(C)C [Example 38, 2-(tert-Butyl(methyl)amino)-N-(trans-4-(2-hydroxypropan-2-yl)cyclohexyl)thiazolo[4,5-b]pyridine-6-carboxamide] | 100 to 1000 nM | – |
| CC(C)(O)[C@H]1CC[C@H](NC(=O)c2cnc3cc(Br)sc3c2)CC1 [Example 1] | 100 to 1000 nM | – |
| O=C(N[C@H]1CC[C@H](OCCO)CC1)c1cnc2nc(C3CC3)sc2c1 [Example 18, 2-Cyclopropyl-N-((trans)-4-(2-hydroxyethoxy)cyclohexyl)thiazolo[4,5-b]pyridine-6-carboxamide] | 100 to 1000 nM | – |
| CC(C)(O)[C@H]1CC2(C[C@H](NC(=O)c3cnc4nc(C5CC5)sc4c3)C2)C1 (single isomer, unassigned) [Example 42] | 10 to 79.4 nM | – |
